{"source": "patent US10048278B2", "about": "“Screening for neurotoxic amino acid associated with neurological disorders” (priority 2003, dated 2018)", "key": {"[1]": {"conditions": "Banack & Cox, 2003; cited from earlier work"}, "[2]": {"conditions": "rats; cited from earlier work"}, "[3]": {"assay": "BMAA in dried skin of flying fox museum specimens (HPLC)", "conditions": "Pteropus mariannus dried skin", "procedure": "BMAA levels were measured in tissues of Cycas micronesica Hill from Guam, and tissues of Pteropus mariannus mariannus, an indigenous flying fox (bat) of Guam. Because Pteropus mariannus mariannus is now highly endangered, BMAA levels were measured in skin tissue from museum specimens of three flying foxes that were collected five decades ago in Guam, preserved as dried study skins, and deposited at the Museum of Vertebrate Zoology (MVZ), at the University of California, Berkeley.\nBMAA was detected using high performance liquid chromatography (HPLC), and results were confirmed with thin layer chromatography (TLC) and gas chromatography-mass spectroscopy (GC-MS). For BMAA analysis, free amino acid extracts of flying fox and cycad tissues were prepared. Tissue samples were rehydrated for 30 minutes with water or trichloroacetic acid (mean tissue prep 80 mg/ml±32 SD), macerated, and filtered. Extracts were derivatized with 6-aminoquinolyl-N-hydrozysuccinimidyl carbamate (ACQ) following standardized protocols. […] The concentration of BMAA in samples was determined by the fluorescent tag using a Waters 2487 Dual-1 Fluorescence Detector, with excitation at 250 nm and emission at 395 nm. Detection of the ACQ-derivatized BMAA was dependent on concentration and quantification was accomplished with comparison of equal amounts of BMAA and a norleucine internal standard (representing a single mid-range concentration) resulting in a mean response of 51.2%. […] The limits of detection (LOD, defined as the lowest concentration of an analyte in a sample that can be detected though not necessarily quantitated) and limits of quantification (LOQ, the concentration within the linear range of the calibration curve relating absorbance to concentration) were determined by a concentration gradient of an authenticated standard (Sigma Chemical Co., St. Louis, Mo.). […] For data interpretations, all sample analyses were quantified within the range of the LOQ or were reported as not detected (ND) (Table 1). […]"}, "[4]": {"assay": "Free and protein-associated BMAA in superior frontal gyrus tissue of patients", "set-up": "species or system human", "procedure": "Tissues were provided by Dr. Patrick McGeer of the University of British Columbia, Vancouver, B.C., Canada. Autopsied tissues from patients were fixed in paraformaldehyde prior to storage in 15% buffered sucrose maintenance solution, where the time interval between death and autopsy varied from 4 hours to 5 days. Familial relationships, clinical histories, and histochemical characteristics of the Chamorro patients had been disclosed previously (McGeer et al, 1997, Neurology 49, 400-409). In addition, autopsied tissued from Canadian patients was provided, including two samples from two (2) Canadian patients who were clinically diagnosed with Alzheimer's disease prior to death, and thirteen (13) Canadian patients who died of natural causes other than progressive neurodegenerative diseases.\nTissues were homogenized twice in 0.1 N trichloroacetic acid and centrifuged at 15,800×g for 3 min to precipitate proteins and extract free amino acids. Protein-bound BMAA was released by hydrolysis of the precipitate at 110° C. in constant boiling 6N HCl for 24 hours. Particulate matter was removed from a 500 μl aliquot by ultrafiltration (Ultrafree-MC, Millipore Corp.) at 15,800×g and the resulting extract was freeze-dried. Amino acids were resuspended in 20 mM HCl, applied to a Sep-Pac C18 cartridge equilibrated with sequential washes of 100% methanol, 50% methanol in water, and a gradient of borate buffer:acetronitrile (0.5M borate:0-60% CH3CN) at 20% increments. BMAA in sample extracts was derivatized with 6-aminoquinolyl-N-hydroxysuccinimidyl carbamate following standardized protocols (Banack et al., 2003, Neurology 61: 387-389). Amino acids were quantified via HPLC separation as described above (Example 3). The presence of BMAA in the samples, as well as the identity and purity of the BMAA peak in the HPLC fractions, was verified by liquid chromatography mass spectroscopy (LC-MS) using an Agilent 1100 HPLC coupled with a variable wavelength diode array detector (DAD) and an SL single quadrapole MS with an atmospheric pressure ionization source (API) using the electrospray ionization interface (ESI). Compounds were separated on a Waters SymetryShield RP 18 column heated at 30° C. with a linear gradient elution of CH3CN (10 40%) in water. Nitrogen gas was purified and supplied to the ESI interface with a nebulizing pressure of 35 psi and two distinct modes were used for detection of compounds within the MS. The DAD detected compounds at 254 nm with a full spectral scan from 200 600 nm and 0.5 nm resolution within a semi micro flow cell. The initial signal was determined in positive scan mode with a 100 600 Da range at 50V fragmentor voltage. BMAA was identified using the extracted ion chromatogram in which the molecular ion peak was confirmed."}, "cyanobacterial symbiont": {"tested_on": "cyanobacterial symbiont", "assay": "Effect of amino acid supplementation of BG-11 medium on cyanobacterial growth", "format": "cell-based, Nostoc", "conditions": "BG-11 medium supplemented with glutamate or glutamine (0, 126, or 250 μmol/L)", "from_the_text": "Cyanobacterial symbionts were isolated from infected coralloid roots of Cycas micronesica Hill, harvested from three accessioned specimens (vouchered specimens of known provenance) growing in the National Tropical Botanical Garden, Kalaheo, Kauai, and grown as an axenic culture with repeated passages. For analysis of cycad root tissues infected with cyanobacterial symbiots, soil-borne bacteria were removed from root tissues of Cycas micronesica Hill by surface-sterilizing roots immersion in a solution of 70% ethanol for 3 min, followed by a 30 min immersion in 1.6% sodium hypochlorite with 2 drops of surfactant and 3 sequential washes with sterile deionized water. Surface-sterilized root explants (1-2 cm long) were excised and cultured onto standard BG-11 medium, pH 7.1 solidified with gellam gum (Sigma). Root explant cultures were incubated in a controlled environment room with a 16 h photoperiod at a light intensity of 35-45 μmole/m^2/s and temperatures of 25-30° C. After 7-10 days of culture, proliferation of colonies of the cyanobacterial symbiont of the root explants was clearly visible. Serial subculture of individual cyanobacterial colonies ensured the absence of residual BMAA from root tissue. […] Histological verification of culture purity was conducted prior to chemical analyses. […]"}, "[5]": {"conditions": "superior frontal gyrus, Alzheimer's, Canadian (first patient)"}, "[6]": {"conditions": "superior frontal gyrus, Alzheimer's, Canadian (second patient)"}, "[7]": {"conditions": "superior frontal gyrus, PDC (Lytico-bodig), Chamorro, donor one"}}}
{"smiles": "CNC[C@H](N)C(=O)O", "note": "[BMAA, β-N-methylamino-L-alanine]", "values": [{"measurement": "stability in dried mammal specimens of great age", "setting": "[1]", "value": "stable"}, {"measurement": "injected BMAA not eliminated from either urine or feces", "setting": "[2]", "value": 90, "unit": "%"}, {"measurement": "Concentration", "setting": "[3]; specimen 114606", "value": "1,879 μg/g"}, {"measurement": "Concentration", "setting": "[3]; specimen 114607", "value": "7,502 μg/g"}, {"measurement": "Concentration", "setting": "[3]; specimen 114609", "value": "1,287 μg/g"}, {"measurement": "quantity of protein-bound BMAA compared to free BMAA", "setting": "[4]; brain tissue, all other patients", "value": "60-130 fold"}, {"measurement": "BMAA recovered from the protein-bound fraction", "setting": "[4]; brain tissue, one Lytico-Bodig (ALS-PDC) patient with no unbound BMAA", "value": "more than 1 mg/g"}, {"measurement": "Protein-bound BMAA", "setting": "[4]; frontal cortex tissue, all six Chamorro patients who had died from ALS-PDC", "value": "149 to 1190", "unit": "µg/g"}, {"measurement": "Free BMAA", "setting": "[4]; frontal cortex tissue, five of six Chamorro patients who had died from ALS-PDC", "value": "3 to 10", "unit": "µg/g"}, {"measurement": "Free BMAA", "setting": "[4]; [5]", "value": 3.4, "unit": "µg/g"}, {"measurement": "Protein-bound BMAA", "setting": "[4]; [5]", "value": 220, "unit": "µg/g"}, {"measurement": "Free BMAA", "setting": "[4]; [6]", "value": 9.7, "unit": "µg/g"}, {"measurement": "Protein-bound BMAA", "setting": "[4]; [6]", "value": 264, "unit": "µg/g"}, {"measurement": "Free BMAA", "setting": "[4]; [7]", "value": 3.3, "unit": "µg/g"}, {"measurement": "Protein-bound BMAA", "setting": "[4]; [7]", "value": 433, "unit": "µg/g"}, {"measurement": "BMAA level in brain tissue", "setting": "[4]; thirteen Canadian patients without Alzheimer's diagnosis who died of other causes", "value": "did not have detectable levels"}]}
{"smiles": "N[C@@H](CCC(=O)O)C(=O)O", "note": "[GLU, glutamic acid]", "values": [{"measurement": "cyanobacterial growth", "setting": "cyanobacterial symbiont", "value": "increased two-fold"}]}
{"smiles": "NC(=O)CC[C@H](N)C(=O)O", "note": "[glutamine]", "values": [{"measurement": "cyanobacterial growth", "setting": "cyanobacterial symbiont", "value": "increased two-fold"}]}
